Experimental data published in patent US20240165042A1, “COMPOSITION FOR CONTROLLED RELEASE OF PHYSIOLOGICALLY ACTIVE SUBSTANCES AND PROCESS FOR ITS PREPARATION” (BALCHEM ITALIA S.R.L., priority 2017, published 2024).

Columns and labels:
Type in all cases: in vitro ADME
[1] = Degree of ruminal by-pass in vitro (pharmaceutical dissolver / Daisy II ANKOM artificial rumen, 39° C., 8 hours, ruminal pH about 6.8)
Description: In the context of the present invention, the term “ruminal by-pass” indicates the percentage amount by weight of substance reaching the animal post-ruminal area, namely the stomach and the intestine, with respect to the total amount by weight of the orally administered substance.
The experimental conditions of use were 39° C., 15 rpm, 8 hours presence in the solution with “ruminal” pH of about 6.8. • Daisy^II ANKOM: commercially available laboratory artificial rumen, for determining the degree of ruminal bypass. The experimental conditions of use were 39° C., 8 hours presence in ruminal conditions, buffer solution at “ruminal” pH with insertion of “ruminal inoculum” and re-creation of ruminal anaerobiosis according to a university procedure known to those skilled in the art. […] Pharmaceutical dissolver for determining the degree of post-ruminal digestibility. The experimental conditions of use followed the procedure known to experts in the field as “Boisen Test” and, in particular, they were: • 39° C., 30 rpm, 2 h, buffer solution with “gastric” pH (2.0)+pepsin inoculum. • 39 °C, 30 rpm, 4 h, buffer solution with “intestinal” pH (6.8)+pancreatine inoculum. • 39° C., 30 rpm, 18 h, buffer solution with “intestinal” pH (6.8)+lipase and bile extract inoculum.
(§1) Then the microgranules were subjected to an evaluation of the degree of ruminal by-pass, post-ruminal digestibility and total bioavailability using the Boisen method.

[2] = Post-ruminal digestibility in vitro (pharmaceutical dissolver, Boisen Test: gastric pH 2.0 + pepsin, intestinal pH 6.8 + pancreatine, then lipase and bile extract)
Description: (§2) The experimental conditions of use were 39° C., 15 rpm, 8 hours presence in the solution with “ruminal” pH of about 6.8. • Daisy^II ANKOM: commercially available laboratory artificial rumen, for determining the degree of ruminal bypass. The experimental conditions of use were 39° C., 8 hours presence in ruminal conditions, buffer solution at “ruminal” pH with insertion of “ruminal inoculum” and re-creation of ruminal anaerobiosis according to a university procedure known to those skilled in the art. The pH normally tested in the quality control phase is 6.8. Pharmaceutical dissolver for determining the degree of post-ruminal digestibility. The experimental conditions of use followed the procedure known to experts in the field as “Boisen Test” and, in particular, they were: • 39° C., 30 rpm, 2 h, buffer solution with “gastric” pH (2.0)+pepsin inoculum. • 39 °C, 30 rpm, 4 h, buffer solution with “intestinal” pH (6.8)+pancreatine inoculum. • 39° C., 30 rpm, 18 h, buffer solution with “intestinal” pH (6.8)+lipase and bile extract inoculum.
as §1

[3] = Total bioavailability in vitro (combination of ruminal by-pass and post-ruminal digestibility)
Description: as §2, §1

[4] = theoretical administration of 100 g of choline chloride
[5] = theoretical administration of 200 g of product

C[N+](C)(C)CCO.[Cl-] [Product A, choline chloride]
Bypassed Choline Chloride [1, 4]: 0 g
Choline Chloride lost in the rumen in 8 h [1, 4]: 101 g
Bypassed Choline Chloride [1, 5]: 0 g
Choline Chloride lost in the rumen in 8 h [1, 5]: 198 g
Choline Chloride in faeces [2, 4]: 0 g
Choline Chloride in faeces [2, 5]: 0 g
Bioavailable Choline Chloride [3, 4]: 0 g
Bioavailable Choline Chloride [3, 5]: 0 g
